From patent US8653074B2, “Substituted sodium 1H-pyrazol-5-olate” (Bayer Intellectual Property GmbH, priority 2010, dated 2014)

Columns and labels:
[1] = Vapour adsorption and vapour desorption (moisture sorption isotherm); type: physicochemical; conditions: for Adsorption / Desorption: 25° C.
Procedure: Vapour Adsorption and Vapour Desorption:
The moisture sorption isotherm was recorded using a Dynamic Vapour Sorption Analyzer IGA Sorp from Hiden Analytical. The measuring temperature was 25° C. There was no sample preparation.

Solubility in water = type: physicochemical; conditions: for solubility thermodynamic at 16 h: thermodynamic from solid, water, 25° C., stirred 16 hours, HPLC
Procedure: Method: Saturated solutions of the test substance were prepared by stirring a suspension in water at 25° C. for 16 hours. The suspensions obtained were then filtered, and the content in the filtrate was determined by HPLC.

[2] = Vapour adsorption and vapour desorption (moisture sorption isotherm); type: physicochemical; conditions: customary environmental conditions (20-35° C., atmospheric pressure)
EGLN2/PHD1 = target: T1, EGLN2/PHD1 (Homo sapiens, UniProt Q96KS0); test: Inhibition of the activity of HIF prolyl hydroxylase (VBC complex binding test); type: biochemical; conditions: mean for EGLN2/PHD1
T1 construct: host or cells: cell lysate
Procedure: The test is carried out as described [Oehme F., Jonghaus W., Narouz-Ott L., Huetter J., Flamme I., Anal. Biochem. 330 (1), 74-80 (2004)]:
A clear 96-well microtiter plate coated with NeutrAvidin HBC (Pierce) is incubated with blocker casein for 30 minutes. The plate is then washed three times with 200 μl each time of wash buffer (50 mM Tris, pH 7.5, 100 mM NaCl, 10% (v/v) blocker casein, 0.05% (v/v) Tween 20) per well. The peptide biotin-[sequence] (Eurogentec, 4102 Seraing, Belgium) is added in a concentration of 400 nM in 100 μl wash buffer. This peptide serves as a substrate for the prolyl hydroxylation and is bonded to the microtiter plate. After incubation for 60 minutes, the plate is washed three times with wash buffer, incubated with 1 mM biotin in blocker casein for 30 minutes and then washed again three times with wash buffer.
To carry out the prolyl hydroxylase reaction, the peptide substrate bonded to the plate is incubated with a cell lysate containing prolyl hydroxylase for 1 to 60 minutes. […]

[3] = test system: recombinant A549 cell line with luciferase reporter under hypoxia-responsible elements; test: Cellular, functional in vitro test (luciferase reporter under hypoxia-responsible elements); type: cell-based; conditions: Homo sapiens
Text: 1.b) Cellular, Functional in vitro Test:
The activity of the compounds according to the invention is quantified with the aid of a recombinant cell line. The cell is originally derived from a human lung carcinoma cell line (A549, ATCC: American Type Culture Collection, Manassas, Va. 20108, USA). The test cell line is transfected in a stable manner with a vector which contains the reporter gene of Photinus pyralis luciferase (called luciferase in the following) under the control of an artificial minimal promoter. […] Under the effect of hypoxia (e.g. culturing in the presence of 1% oxygen for 24 hours) or under the action of non-selective dioxygenase inhibitors (e.g. desferroxamine in a concentration of 100 μM, cobalt chloride in a concentration of 100 μM or N-oxalylglycine diethyl ester in a concentration of 1 mM), the test cell line produces luciferase, which can be detected and quantified with the aid of suitable bioluminescence reagents (e.g. Steady-Glo® Luciferase Assay System, Promega Corporation, Madison, Wis. 53711, USA) and a suitable luminometer.
On the day before the test, the cells are plated out in an exactly calculated amount of culture medium (DMEM, 10% FCS, 2 mM glutamine) in 384- or 1,536-well microtiter plates and kept in a cell incubator (96% atmospheric humidity, 5% v/v CO2, 37° C.). […]

EGLN1/PHD2 = EGLN1/PHD2 (Homo sapiens, UniProt Q9GZT9); test: biochemical
Procedure: Hydroxylated HIF bonds specifically to the von Hippel-Lindau protein-elongin B-elongin C complex (VBC complex). This interaction occurs only if HIF is hydroxylated on a conserved prolyl radical. It is the basis for the biochemical determination of HIF prolyl hydroxylase activity.
A clear 96-well microtiter plate coated with NeutrAvidin HBC (Pierce) is incubated with blocker casein for 30 minutes. The plate is then washed three times with 200 μl each time of wash buffer (50 mM Tris, pH 7.5, 100 mM NaCl, 10% (v/v) blocker casein, 0.05% (v/v) Tween 20) per well. […] This peptide serves as a substrate for the prolyl hydroxylation and is bonded to the microtiter plate. After incubation for 60 minutes, the plate is washed three times with wash buffer, incubated with 1 mM biotin in blocker casein for 30 minutes and then washed again three times with wash buffer. […]
For quantitative determination of the prolyl hydroxylation, a fusion protein which contains both thioredoxin from E. coli and the VBC complex in 80 μl bonding buffer (50 mM Tris, pH 7.5, 120 mM NaCl) is added. […] The amount of bonded VBC complex is determined by measurement of the optical density at 450 nm. […]
Alternatively, a VBC complex coupled to europium (Perkin Elmer) can be used for detection of the prolyl hydroxylation. In this case, the amount of bonded VBC complex is determined by the fluorescence with respect to time.

T1 sequence (Q96KS0 whole entry): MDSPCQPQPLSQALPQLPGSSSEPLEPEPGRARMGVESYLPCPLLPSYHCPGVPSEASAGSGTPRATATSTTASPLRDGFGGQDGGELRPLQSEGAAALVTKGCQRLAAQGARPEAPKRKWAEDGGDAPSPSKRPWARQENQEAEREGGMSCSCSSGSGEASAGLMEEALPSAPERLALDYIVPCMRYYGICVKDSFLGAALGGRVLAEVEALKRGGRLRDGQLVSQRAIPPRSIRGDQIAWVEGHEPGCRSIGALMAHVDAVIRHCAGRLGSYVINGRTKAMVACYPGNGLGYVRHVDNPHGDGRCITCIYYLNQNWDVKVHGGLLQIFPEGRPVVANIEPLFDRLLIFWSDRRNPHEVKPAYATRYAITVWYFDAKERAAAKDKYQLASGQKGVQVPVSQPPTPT
Chain of EGLN1/PHD2 (Q9GZT9 whole entry): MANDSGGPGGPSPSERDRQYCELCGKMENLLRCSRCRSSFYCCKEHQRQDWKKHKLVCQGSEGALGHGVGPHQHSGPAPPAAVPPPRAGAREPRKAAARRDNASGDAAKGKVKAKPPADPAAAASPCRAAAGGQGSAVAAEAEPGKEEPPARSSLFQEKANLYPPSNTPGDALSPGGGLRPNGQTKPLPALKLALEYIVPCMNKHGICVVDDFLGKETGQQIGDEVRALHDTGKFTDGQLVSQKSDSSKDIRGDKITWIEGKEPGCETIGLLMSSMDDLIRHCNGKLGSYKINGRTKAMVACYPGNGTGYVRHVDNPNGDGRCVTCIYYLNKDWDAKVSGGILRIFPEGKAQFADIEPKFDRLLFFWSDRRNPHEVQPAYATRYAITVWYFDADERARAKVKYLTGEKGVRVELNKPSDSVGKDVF

Adsorption ([1]; 0% rh) [%]	Adsorption ([1]; 10% rh) [%]	Desorption ([1]; 10% rh) [%]	Adsorption ([1]; 20% rh) [%]	Desorption ([1]; 20% rh) [%]	Adsorption ([1]; 30% rh) [%]	Desorption ([1]; 30% rh) [%]	Adsorption ([1]; 40% rh) [%]	Desorption ([1]; 40% rh) [%]	Adsorption ([1]; 50% rh) [%]	Desorption ([1]; 50% rh) [%]	Adsorption ([1]; 60% rh) [%]	Desorption ([1]; 60% rh) [%]	Adsorption ([1]; 70% rh) [%]	Desorption ([1]; 70% rh) [%]	Adsorption ([1]; 80% rh) [%]	Desorption ([1]; 80% rh) [%]	Adsorption ([1]; 90% rh) [%]	Desorption ([1]; 90% rh) [%]	solubility thermodynamic at 16 h (Solubility in water) [mg/mL]	SMILES	other results
0.1	0.2	0.1	0.3	0.2	4.8	4.7	5.1	5.2	5.3	5.4	5.4	5.6	5.6	5.6	5.7	5.7	5.9	5.9	0.143	Oc1c(-n2ccnn2)cnn1-c1cc(N2CCOCC2)ncn1 [Compound of the formula (I), 1-[6-(morpholin-4-yl)pyrimidin-4-yl]-4-(1H-1,2,3-triazol-1-yl)-1H-pyrazol-5-ol, reference compound]	Desorption ([1]; 5% rh (printed in the 0% rh line)): 0.1% (5% rh); uptake of water ([1]; 20-35° C., atmospheric pressure, relative atmospheric humidity above 20% rh): up to 6 % by weight; hygroscopicity [2]: hygroscopic
0	0	0	0.1	0	0.1	0.1	0.2	0.2	0.2	0.3	0.2	0.3	0.4	0.4	0.4	0.5	0.8	0.8	28	[Na+].[O-]c1c(-n2ccnn2)cnn1-c1cc(N2CCOCC2)ncn1 [Compound of the formula (II), sodium 1-[6-(morpholin-4-yl)pyrimidin-4-yl]-4-(1H-1,2,3-triazol-1-yl)-1H-pyrazol-5-olate]	water content [1]: less than 0.5 % by weight; Desorption ([1]; 0% rh): 0%; change of water content ([1]; 20-35° C., atmospheric pressure, atmospheric humidity of up to 90% rh): less than 0.5 % by weight; solubility in water compared to the compound of the formula (I) (Solubility in water): higher solubility in water; IC50 (EGLN2/PHD1): 470 nM; hygroscopicity [2]: not hygroscopic; EC50 [3]: 7 nM; IC50 (EGLN1/PHD2): 140 nM
